# Where a SMILES comes first, the peptide text is derived from it. Where no end group is shown, it is not given here.
# Target: T1, P-selectin (Homo sapiens, UniProt P16109)
# T1 construct: from tissue; host or cells: outdated human platelet packs from a blood bank
# T1 sequence (P16109 42-830): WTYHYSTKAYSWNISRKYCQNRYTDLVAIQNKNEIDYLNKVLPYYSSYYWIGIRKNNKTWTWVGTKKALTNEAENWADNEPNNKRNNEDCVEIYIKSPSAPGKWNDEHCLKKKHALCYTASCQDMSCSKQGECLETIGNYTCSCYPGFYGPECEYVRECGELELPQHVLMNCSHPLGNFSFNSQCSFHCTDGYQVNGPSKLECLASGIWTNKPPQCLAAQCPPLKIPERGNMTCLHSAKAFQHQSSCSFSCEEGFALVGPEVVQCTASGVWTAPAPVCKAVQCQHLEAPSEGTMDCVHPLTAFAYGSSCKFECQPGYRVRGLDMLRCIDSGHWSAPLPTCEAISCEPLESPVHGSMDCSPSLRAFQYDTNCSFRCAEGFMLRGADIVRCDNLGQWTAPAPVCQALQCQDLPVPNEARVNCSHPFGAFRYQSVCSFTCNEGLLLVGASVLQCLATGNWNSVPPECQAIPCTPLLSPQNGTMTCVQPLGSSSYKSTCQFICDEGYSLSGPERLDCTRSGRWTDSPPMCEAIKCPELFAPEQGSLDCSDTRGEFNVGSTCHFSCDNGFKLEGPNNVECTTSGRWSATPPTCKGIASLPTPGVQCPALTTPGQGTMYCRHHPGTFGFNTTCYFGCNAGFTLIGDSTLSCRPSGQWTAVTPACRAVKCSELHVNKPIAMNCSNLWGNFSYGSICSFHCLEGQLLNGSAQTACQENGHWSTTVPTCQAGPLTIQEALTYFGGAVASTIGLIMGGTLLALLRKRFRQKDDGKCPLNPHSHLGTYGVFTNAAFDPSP
# Experiment: Inhibition of binding of human neutrophils to P-selectin (neutrophil adhesion to purified immobilized P-selectin, myeloperoxidase readout)
# Format: cell-based
# Details: P-selectin purified from human platelets, plated at 5 micrograms/mL, peptides tested 1.0 mM to 0.001 mM
# Excerpt: Peptides can be screened for their ability to inhibit adhesion to cells, for example, neutrophil adhesion to purified P-selectin immobilized on plastic wells, using the assay described by Geng, et al., Nature 343, 757-760 1990). Human neutrophils are isolated from heparinized […] blood by density gradient centrifugation on Mono-Poly resolving media, Flow Laboratories. Neutrophil suspensions are greater than 98% pure and greater than 95% viable by trypan blue exclusion. For adhesion assays, neutrophils are suspended at a concentration of 2×10^6 cells/mL in Hanks' balanced salt solution containing 1.26 mM Ca^2+ and 0.81 mM Mg^2+ (HBSS, Gibco) with […] human serum albumin (HBSS/HSA). Adhesion assays are conducted in triplicate in 96-well microtiter plates, Corning, incubated at 4° C. overnight with 50 microliters of various protein solutions. P-selectin is isolated from human platelet lysates by immunoaffinity chromatography on antibody S12-Sepharose™ and ion-exchange chromatography on a Mono-Q™ column (FLPC, Pharmacia Fine Chemicals), as follows. Outdated human platelet packs (100 units) obtained from a blood bank and stored at 4° C. are pooled, adjusted to 5 mM EDTA at pH 7.5, centrifuged at 4,000 rpm for 30 minutes in 1 liter bottles, then washed three times with 1 liter of 0.1M NaCl, 20 mM Tris pH 7.5 (TBS), 5 mM EDTA, 5 mM benzamidine. The pellets are then resuspended in a minimum amount of wash buffer and made 1 mM in DIFP, then frozen in 50 mL screwtop tubes at -80° C. The frozen platelets are thawed and resuspended in 50 mL TBS, 5 mM benzamidine, 5 mM EDTA pH 7.5, […]. The suspension is frozen and thawed two times in a dry ice-acetone bath using a 600 mL lyophilizing flask, then homogenized in a glass/teflon mortar and pestle and made 1 mM in DIFP. The NaCl concentration is adjusted to 0.5M with a stock solution of 4M NaCl. After stirring the suspension at 4° C., it is centrifuged in polycarbonate tubes at 33,000 rpm for 60 minutes at 4° C. The supernatant (0.5M NaCl wash) is removed and saved; this supernatant contains the soluble form of P-selectin. Care is taken not to remove the top part of the pellet with the supernatant. The pellets are then homogenized in extraction buffer (TBS, 5 mM benzamidine, 5 mM EDTA, pH 7.5, 100 μM leupeptin, 2% Triton X-100). After centrifugation at 19,500 rpm for 25 minutes at 4° C., the supernatant is removed. The extraction procedure is repeated with the pellet and the supernatant is combined with the first supernatant. The combined extracts, which contain the membrane form of P-selectin, are adjusted to 0.5M NaCl. The soluble fraction (0.5M NaCl wash) and the membrane extract (also adjusted to 0.5M NaCl) are absorbed with separate pools of the monoclonal antibody S12 (directed to P-selectin) previously coupled to Affigel (Biorad) at 5 mg/mL for 2 hours at 4° C. After letting the resins settle, the supernatants are removed. The S12 Affigel containing bound GMP-140 is then loaded into a column and washed overnight at 4° C. with 400 mL of 0.5M NaCl, 20 mM Tris pH 7.5, 0.01% Lubrol PX. Bound P-selectin is eluted from the S12 Affigel with 100 mL of 80% ethylene glycol, 1 mM MES pH 6.0, 0.01% Lubrol PX. Peak fractions with absorbance at 280 nm are pooled. Eluates are dialyzed against TBS with 0.05% Lubrol, then applied to a Mono Q column (FPLC from Pharmacia). The concentrated protein is step eluted with 2M NaCl, 20 mM Tris pH 7.5 (plus 0.05% Lubrol PX for the membrane fraction). Peak fractions are dialyzed into TBS pH 7.5 (plus 0.05% Lubrol PX for the membrane fraction). P-selectin is plated at 5 micrograms/mL and the control proteins: human serum albumin (Alb), platelet glycoprotein IIb/IIIa (IIb), von Willsbrand factor (vWF), fibrinogen (FIB), thrombomodulin (TM), gelatin (GEL) or human serum (HS), are added at 50 micrograms/mL. […]
row,Molecule,IC50
1,"SKKKLALCI-NH2 [SEQ ID NO: 30, SKKKLALCI--NH2]",867 µM
2,"Ac-NKKKLALCY-NH2 [SEQ ID NO: 14, Ac-NKKKLALCY--NH2]",53 µM
3,"SRKRLALCY-NH2 [SEQ ID NO: 66, SRKRLALCY--NH2]",3 µM
4,"SKKKHALCY-NH2 [SEQ ID NO: 25, SKKKHALCY--NH2]",656 µM
5,"SKKKLQACY-NH2 [SEQ ID NO: 46, SKKKLQACY--NH2]",329 µM
6,"LKKKHALCY-NH2 [SEQ ID NO: 11, LKKKHALCY--NH2]",178 µM
7,"SSKKLALCY-NH2 [SEQ ID NO: 70, SSKKLALCY--NH2]",282 µM
8,"SKKKLALFY-NH2 [SEQ ID NO: 32, SKKKLALFY--NH2]",15 µM
9,"SRRKLALCY-NH2 [SEQ ID NO: 69, SRRKLALCY--NH2]",14 µM
10,"SKKKLALCY-NH2 [SEQ ID NO: 31, SKKKLALCY--NH2]",19 µM
11,"SKKKLALCF-NH2 [SEQ ID NO: 29, SKKKLALCF--NH2]",65 µM
12,"SKRRLALCY-NH2 [SEQ ID NO: 58, SKRRLALCY--NH2]",8 µM
13,"SKHKLALCY-NH2 [SEQ ID NO: 21, SKHKLALCY--NH2]",888 µM
14,"HKKKLALCY-NH2 [SEQ ID NO: 10, HKKKLALCY--NH2]",55 µM
15,"SHKKLALCY-NH2 [SEQ ID NO: 18, SHKKLALCY--NH2]",362 µM
16,"SKKKLALIV-NH2 [SEQ ID NO: 33, SKKKLALIV--NH2]",390 µM
17,"Ac-SRRKLALCY-NH2 [SEQ ID NO: 68, Ac-SRRKLALCY--NH2]",27 µM
18,"SKKKLALHY-NH2 [SEQ ID NO: 36, SKKKLALHY--NH2]",177 µM
19,"Ac-SKRKRALCY-NH2 [SEQ ID NO: 55, Ac-SKRKRALCY--NH2]",26 µM
20,"SKKFLALCY-NH2 [SEQ ID NO: 22, SKKFLALCY--NH2]",554 µM
21,"SKSKLALCY-NH2 [SEQ ID NO: 60, SKSKLALCY--NH2]",858 µM
22,"Ac-FKKKLALCY-NH2 [SEQ ID NO: 7, Ac-FKKKLALCY--NH2]",74 µM
23,"Ac-SKRRLALCY-NH2 [SEQ ID NO: 57, Ac-SKRRLALCY--NH2]",8 µM
24,"Ac-SKRKLALCY-NH2 [SEQ ID NO: 53, Ac-SKRKLALCY--NH2]",12 µM

# More lines, in order of falling IC50, values ahead:
row,IC50,Molecule
1,897 µM,"SKKKLAPCY-NH2 [SEQ ID NO: 42, SKKKLAPCY--NH2]"
2,423 µM,"SKKKLALTY-NH2 [SEQ ID NO: 41, SKKKLALTY--NH2]"
3,192 µM,"Ac-SKKKAALCY-NH2 [SEQ ID NO: 23, Ac-SKKKAALCY--NH2]"
4,107 µM,"SKKKLAICY-NH2 [SEQ ID NO: 28, SKKKLAICY--NH2]"
5,103 µM,"PKKKLALCY-NH2 [SEQ ID NO: 16, PKKKLALCY--NH2]"
6,65 µM,"LKKKLALCY-NH2 [SEQ ID NO: 13, LKKKLALCY--NH2]"
7,60 µM,"Ac-SKAKLALCY-NH2 [SEQ ID NO: 19, Ac-SKAKLALCY--NH2]"
8,48 µM,"CC(C)C[C@H](NC(=O)[C@H](C)NC(=O)[C@H](CC(C)C)NC(=O)[C@H](CCCCN)NC(=O)[C@H](CCCCN)NC(=O)[C@H](CCCCN)NC(=O)[C@H](CO)NC(=O)[C@@H](N)CS)C(=O)N[C@@H](CS)C(=O)N[C@@H](Cc1ccc(O)cc1)C(N)=O [SEQ ID NO: 2, Cystinyl-serinyl-lysyl-lysyl-lysyl-leucyl-alanyl-leucyl-cystinyl-tyrosine-amide] (H-CSKKKLALCY-NH2)"
9,43 µM,"SKKKLALIY-NH2 [SEQ ID NO: 35, SKKKLALIY--NH2]"
10,37 µM,"SKFKLALCY-NH2 [SEQ ID NO: 20, SKFKLALCY--NH2]"
11,26 µM,"Ac-LKKKLALCY-NH2 [SEQ ID NO: 12, Ac-LKKKLALCY--NH2]"
12,24 µM,"SKRKRALCY-NH2 [SEQ ID NO: 56, SKRKRALCY--NH2]"
13,17 µM,"Ac-SRKKLALCY-NH2 [SEQ ID NO: 63, Ac-SRKKLALCY--NH2]"
14,9 µM,"Ac-SKKKLALCY-NH2 [SEQ ID NO: 49, Ac-SKKKLALCY--NH2]"
15,4 µM,"SKKRLALCY-NH2 [SEQ ID NO: 50, SKKRLALCY--NH2]"
